Results: US20240207263A1, “SELECTIVE MODULATORS OF ATAXIA TELA[…] (ATM) KINASE AND USES THEREOF” (priority 2021, published 2024)

These molecules were tested against ATM (Homo sapiens (Human), UniProt Q13315) (assay: biochemical). Details: not given.
Format: biochemical
From the text: Assay a): ATM Biochemical Potency
Data was collected by Caliper.

Chain of ATM (Q13315 whole entry, looked up): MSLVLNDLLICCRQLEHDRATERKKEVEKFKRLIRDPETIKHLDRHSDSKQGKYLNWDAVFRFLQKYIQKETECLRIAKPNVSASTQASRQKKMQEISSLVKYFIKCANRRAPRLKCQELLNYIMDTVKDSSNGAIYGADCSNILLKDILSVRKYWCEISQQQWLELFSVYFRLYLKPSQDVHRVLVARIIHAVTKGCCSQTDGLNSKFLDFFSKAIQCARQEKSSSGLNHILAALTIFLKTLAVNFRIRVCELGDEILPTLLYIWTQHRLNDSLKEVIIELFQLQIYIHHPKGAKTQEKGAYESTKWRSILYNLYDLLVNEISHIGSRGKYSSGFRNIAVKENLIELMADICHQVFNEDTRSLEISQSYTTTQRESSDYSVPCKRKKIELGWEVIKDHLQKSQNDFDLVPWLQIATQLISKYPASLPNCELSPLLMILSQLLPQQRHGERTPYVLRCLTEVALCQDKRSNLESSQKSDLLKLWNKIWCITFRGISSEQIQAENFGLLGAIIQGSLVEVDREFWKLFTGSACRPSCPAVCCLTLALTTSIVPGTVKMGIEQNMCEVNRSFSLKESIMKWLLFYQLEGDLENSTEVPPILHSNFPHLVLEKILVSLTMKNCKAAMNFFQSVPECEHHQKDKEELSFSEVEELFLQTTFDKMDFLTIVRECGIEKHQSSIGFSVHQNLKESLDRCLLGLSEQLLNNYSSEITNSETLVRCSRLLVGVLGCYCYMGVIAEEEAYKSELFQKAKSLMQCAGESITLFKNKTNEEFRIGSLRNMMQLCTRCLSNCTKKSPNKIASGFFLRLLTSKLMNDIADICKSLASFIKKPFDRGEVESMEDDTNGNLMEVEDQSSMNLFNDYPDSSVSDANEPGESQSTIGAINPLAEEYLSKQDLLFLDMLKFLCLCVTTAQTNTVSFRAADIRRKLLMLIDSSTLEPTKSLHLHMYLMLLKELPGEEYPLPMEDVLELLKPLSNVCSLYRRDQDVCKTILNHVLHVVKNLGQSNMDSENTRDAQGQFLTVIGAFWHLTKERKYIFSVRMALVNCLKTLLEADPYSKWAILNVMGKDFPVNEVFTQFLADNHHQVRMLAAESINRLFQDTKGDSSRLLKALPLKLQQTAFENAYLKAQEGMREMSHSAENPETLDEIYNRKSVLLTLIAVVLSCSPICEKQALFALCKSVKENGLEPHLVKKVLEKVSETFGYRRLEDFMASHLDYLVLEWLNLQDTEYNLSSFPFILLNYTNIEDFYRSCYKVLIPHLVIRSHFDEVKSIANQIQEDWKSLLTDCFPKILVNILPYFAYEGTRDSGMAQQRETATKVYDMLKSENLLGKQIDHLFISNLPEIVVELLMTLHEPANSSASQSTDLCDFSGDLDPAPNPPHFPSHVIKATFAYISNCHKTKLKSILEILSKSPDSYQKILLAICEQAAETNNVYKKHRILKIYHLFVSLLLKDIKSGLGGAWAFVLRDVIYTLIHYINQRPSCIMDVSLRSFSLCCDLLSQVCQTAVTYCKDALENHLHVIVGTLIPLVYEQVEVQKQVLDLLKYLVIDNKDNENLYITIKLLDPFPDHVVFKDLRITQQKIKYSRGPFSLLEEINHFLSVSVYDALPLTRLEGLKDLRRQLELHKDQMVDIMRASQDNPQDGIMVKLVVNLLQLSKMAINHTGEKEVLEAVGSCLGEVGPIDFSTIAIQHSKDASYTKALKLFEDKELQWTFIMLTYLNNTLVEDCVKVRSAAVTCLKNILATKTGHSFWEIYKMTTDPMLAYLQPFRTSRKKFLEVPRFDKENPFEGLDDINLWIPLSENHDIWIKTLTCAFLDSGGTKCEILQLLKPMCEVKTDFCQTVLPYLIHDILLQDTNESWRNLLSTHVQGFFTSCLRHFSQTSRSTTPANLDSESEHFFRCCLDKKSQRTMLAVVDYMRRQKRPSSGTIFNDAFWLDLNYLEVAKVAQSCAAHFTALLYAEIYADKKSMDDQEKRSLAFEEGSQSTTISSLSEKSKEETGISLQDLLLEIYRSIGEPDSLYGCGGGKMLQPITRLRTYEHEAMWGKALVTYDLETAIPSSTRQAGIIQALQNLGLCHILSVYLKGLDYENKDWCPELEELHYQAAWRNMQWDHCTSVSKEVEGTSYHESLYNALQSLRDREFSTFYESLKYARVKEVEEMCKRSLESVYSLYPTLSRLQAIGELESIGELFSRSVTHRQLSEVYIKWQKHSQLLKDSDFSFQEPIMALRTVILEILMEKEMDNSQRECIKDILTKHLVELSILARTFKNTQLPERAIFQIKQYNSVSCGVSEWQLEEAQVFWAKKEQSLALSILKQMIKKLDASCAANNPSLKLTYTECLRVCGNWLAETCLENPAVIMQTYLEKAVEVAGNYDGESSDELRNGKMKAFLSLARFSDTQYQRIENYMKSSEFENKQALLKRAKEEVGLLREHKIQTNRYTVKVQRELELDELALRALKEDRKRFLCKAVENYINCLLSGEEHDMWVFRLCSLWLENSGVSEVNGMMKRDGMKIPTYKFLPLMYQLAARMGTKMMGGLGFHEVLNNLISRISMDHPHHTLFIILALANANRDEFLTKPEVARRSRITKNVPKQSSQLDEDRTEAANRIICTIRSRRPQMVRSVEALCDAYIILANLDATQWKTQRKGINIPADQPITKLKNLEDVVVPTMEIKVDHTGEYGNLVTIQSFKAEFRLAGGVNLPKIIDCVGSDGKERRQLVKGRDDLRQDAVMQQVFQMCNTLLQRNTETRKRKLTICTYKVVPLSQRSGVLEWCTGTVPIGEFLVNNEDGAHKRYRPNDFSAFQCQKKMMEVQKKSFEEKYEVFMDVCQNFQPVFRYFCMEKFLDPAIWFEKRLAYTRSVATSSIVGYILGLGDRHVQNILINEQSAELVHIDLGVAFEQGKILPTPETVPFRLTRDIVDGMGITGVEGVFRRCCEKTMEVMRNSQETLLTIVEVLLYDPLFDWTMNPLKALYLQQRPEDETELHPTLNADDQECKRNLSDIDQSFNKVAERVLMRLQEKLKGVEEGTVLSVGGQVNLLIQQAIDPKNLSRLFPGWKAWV

Row | Structure (SMILES) | IC50
1 | Cn1c(=O)n(C2CCOCC2)c2c3cc(-c4ccc(COCCN5CCC6(CC6)C5)nc4)ccc3nnc21 [Example 94, 8-(6-((2-(5-azaspiro[2.4]heptan-5-yl)ethoxy)methyl)pyridin-3-yl)-3-methyl-1-(tetrahydro-2H-pyran-4-yl)-1H-imidazo[4,5-c]cinnolin-2(3H)-one] | 24 nM

Same assay, conditions: read-out: ATM IC50

Row | Structure (SMILES) | IC50
2 | CC(C)n1c(=O)n(C)c2nnc3ccc(-c4ccc([C@@H](C)OCCN5CCC(C6COC6)CC5)nc4)cc3c21 [Example 83, (R)-1-isopropyl-3-methyl-8-(6-(1-(2-(4-(oxetan-3-yl)piperidin-1-yl)ethoxy)ethyl)pyridin-3-yl)-1H-imidazo[4,5-c]cinnolin-2(3H)-one] | 2.4 nM
3 | CC(C)n1c(=O)n(C)c2nnc3ccc(-c4ccc([C@@H](C)OCCN5CCC(C(F)(F)F)CC5)nc4)cc3c21 [Example 84, (R)-1-isopropyl-3-methyl-8-(6-(1-(2-(4-(trifluoromethyl)piperidin-1-yl)ethoxy)ethyl)pyridin-3-yl)-1H-imidazo[4,5-c]cinnolin-2(3H)-one] | 1.9 nM
4 | COC[C@@H]1CCN(CCO[C@H](C)c2ccc(-c3ccc4nnc5c(c4c3)n(C(C)C)c(=O)n5C)cn2)C1 [Example 85, 1-isopropyl-8-(6-((R)-1-(2-((R)-3-(methoxymethyl)pyrrolidin-1-yl)ethoxy)ethyl)pyridin-3-yl)-3-methyl-1H-imidazo[4,5-c]cinnolin-2(3H)-one] | 3.4 nM
5 | CC(C)n1c(=O)n(C)c2nnc3ccc(-c4ccc([C@@H](C)OCCN5CCCCC5)nc4)cc3c21 [Example 87, (R)-1-isopropyl-3-methyl-8-(6-(1-(2-(piperidin-1-yl)ethoxy)ethyl)pyridin-3-yl)-1H-imidazo[4,5-c]cinnolin-2(3H)-one] | 8.2 nM
6 | CC(C)n1c(=O)n(C)c2nnc3ccc(-c4ccc([C@@H](C)OCCN5CCC6(CCC6)C5)nc4)cc3c21 [Example 89, (R)-8-(6-(1-(2-(6-azaspiro[3.4]octan-6-yl)ethoxy)ethyl)pyridin-3-yl)-1-isopropyl-3-methyl-1H-imidazo[4,5-c]cinnolin-2(3H)-one] | 1.6 nM
7 | CC(C)n1c(=O)n(C)c2nnc3ccc(-c4ccc([C@@H](C)OCCN5CCC(C)(C#N)C5)nc4)cc3c21 (stereo partly drawn) [Example 90, 1-(2-((R)-1-(5-(1-isopropyl-3-methyl-2-oxo-2,3-dihydro-1H-imidazo[4,5-c]cinnolin-8-yl)pyridin-2-yl)ethoxy)ethyl)-3-methylpyrrolidine-3-carbonitrile] | 11 nM
8 | CC(C)n1c(=O)n(C)c2nnc3ccc(-c4ccc([C@@H](C)OCCN5CCC(C#N)CC5)nc4)cc3c21 [Example 91, (R)-1-(2-(1-(5-(1-isopropyl-3-methyl-2-oxo-2,3-dihydro-1H-imidazo[4,5-c]cinnolin-8-yl)pyridin-2-yl)ethoxy)ethyl)piperidine-4-carbonitrile] | 8.5 nM
9 | CC(C)OC1CCN(CCO[C@H](C)c2ccc(-c3ccc4nnc5c(c4c3)n(C(C)C)c(=O)n5C)cn2)CC1 [Example 92, (R)-8-(6-(1-(2-(4-isopropoxypiperidin-1-yl)ethoxy)ethyl)pyridin-3-yl)-1-isopropyl-3-methyl-1H-imidazo[4,5-c]cinnolin-2(3H)-one] | 1.5 nM
10 | CC(C)O[C@@H]1CCN(CCO[C@H](C)c2ccc(-c3ccc4nnc5c(c4c3)n(C(C)C)c(=O)n5C)cn2)C1 [Example 93, 8-(6-((R)-1-(2-((R)-3-isopropoxypyrrolidin-1-yl)ethoxy)ethyl)pyridin-3-yl)-1-isopropyl-3-methyl-1H-imidazo[4,5-c]cinnolin-2(3H)-one] | 4.9 nM
11 | Cn1c(=O)n(C2CCOCC2)c2c3cc(-c4ccc(COCCN5CCC(F)CC5)nc4)ccc3nnc21 [Example 95, 8-(6-((2-(4-fluoropiperidin-1-yl)ethoxy)methyl)pyridin-3-yl)-3-methyl-1-(tetrahydro-2H-pyran-4-yl)-1H-imidazo[4,5-c]cinnolin-2(3H)-one] | 47 nM
12 | Cn1c(=O)n(C2CCOCC2)c2c3cc(-c4ccc(COCCN5CCC(C)(C)CC5)nc4)ccc3nnc21 [Example 96, 8-(6-((2-(4,4-dimethylpiperidin-1-yl)ethoxy)methyl)pyridin-3-yl)-3-methyl-1-(tetrahydro-2H-pyran-4-yl)-1H-imidazo[4,5-c]cinnolin-2(3H)-one] | 17 nM
13 | Cn1c(=O)n(C2CCOCC2)c2c3cc(-c4ccc(COCCN5CC6CC6C5)nc4)ccc3nnc21 (stereo not drawn) [Example 98, 8-(6-((2-(3-azabicyclo[3.1.0]hexan-3-yl)ethoxy)methyl)pyridin-3-yl)-3-methyl-1-(tetrahydro-2H-pyran-4-yl)-1H-imidazo[4,5-c]cinnolin-2(3H)-one] | 62 nM
14 | Cn1c(=O)n(C2CCOCC2)c2c3cc(-c4ccc(COCCN5CC[C@@H](OC(F)F)C5)nc4)ccc3nnc21 [Example 99, (R)-8-(6-((2-(3-(difluoromethoxy)pyrrolidin-1-yl)ethoxy)methyl)pyridin-3-yl)-3-methyl-1-(tetrahydro-2H-pyran-4-yl)-1H-imidazo[4,5-c]cinnolin-2(3H)-one] | 40 nM
15 | Cn1c(=O)n(C2CCOCC2)c2c3cc(-c4ccc(COCCN5CC[C@H](OC(F)F)C5)nc4)ccc3nnc21 [Example 100, (S)-8-(6-((2-(3-(difluoromethoxy)pyrrolidin-1-yl)ethoxy)methyl)pyridin-3-yl)-3-methyl-1-(tetrahydro-2H-pyran-4-yl)-1H-imidazo[4,5-c]cinnolin-2(3H)-one] | 16 nM
16 | Cn1c(=O)n(C2CCOCC2)c2c3cc(-c4ccc(COCCN5CCC(OC(F)(F)F)CC5)nc4)ccc3nnc21 [Example 101, 3-methyl-1-(tetrahydro-2H-pyran-4-yl)-8-(6-((2-(4-(trifluoromethoxy)piperidin-1-yl)ethoxy)methyl)pyridin-3-yl)-1H-imidazo[4,5-c]cinnolin-2(3H)-one] | 3.7 nM
17 | C[C@@H](OCCN1CC2CC2C1)c1ccc(-c2ccc3nnc4c(c3c2)n(C2CCOCC2)c(=O)n4C)cn1 (stereo partly drawn) [Example 104, 8-(6-((1R)-1-(2-(3-azabicyclo[3.1.0]hexan-3-yl)ethoxy)ethyl)pyridin-3-yl)-3-methyl-1-(tetrahydro-2H-pyran-4-yl)-1H-imidazo[4,5-c]cinnolin-2(3H)-one] | 19 nM
18 | C[C@@H](OCCN1CCC(F)CC1)c1ccc(-c2ccc3nnc4c(c3c2)n(C2CCOCC2)c(=O)n4C)cn1 [Example 108] | 3.7 nM
19 | C[C@@H](OCCN1CCC(OC(F)(F)F)CC1)c1ccc(-c2ccc3nnc4c(c3c2)n(C2CCOCC2)c(=O)n4C)cn1 [Example 109, (R)-3-methyl-1-(tetrahydro-2H-pyran-4-yl)-8-(6-(1-(2-(4-(trifluoromethoxy)piperidin-1-yl)ethoxy)ethyl)pyridin-3-yl)-1H-imidazo[4,5-c]cinnolin-2(3H)-one] | 2.1 nM
20 | C[C@@H](OCCN1CCC(C)(C)C1)c1ccc(-c2ccc3nnc4c(c3c2)n(C2CCOCC2)c(=O)n4C)cn1 [Example 111, (R)-8-(6-(1-(2-(3,3-dimethylpyrrolidin-1-yl)ethoxy)ethyl)pyridin-3-yl)-3-methyl-1-(tetrahydro-2H-pyran-4-yl)-1H-imidazo[4,5-c]cinnolin-2(3H)-one] | 12 nM
21 | CC(C)O[C@@H]1CCN(CCO[C@H](C)c2ccc(-c3ccc4nnc5c(c4c3)n(C3CCOCC3)c(=O)n5C)cn2)C1 [Example 113, 8-(6-((R)-1-(2-((R)-3-isopropoxypyrrolidin-1-yl)ethoxy)ethyl)pyridin-3-yl)-3-methyl-1-(tetrahydro-2H-pyran-4-yl)-1H-imidazo[4,5-c]cinnolin-2(3H)-one] | 7.5 nM
